Patent publication US5506213A, “Adminstration of 2'-halo-2'-deoxy adenosine to treat inflammatory bowel disease” (priority 1994, dated 1996)

Columns and labels:
[1] = test system: CEM, Increased 5'-nucleoside; assay: Direct comparative cytotoxicity assay (Table II), CEM increased 5'-nucleoside; type: cell-based, human; settings: Homo sapiens, 120 h, read-out: ID50: concentration that produced 50 percent reduction in all numbers after five days
Source text: (§1) The two compounds, CdA and CAFdA, were also compared for in vitro activity against another group of human cell lines in a direct comparative assay.
(§2) ^1 Concentration that produced 50 percent reduction in all numbers
(§3) ^2 CEM cells are T lymphoblasts; DHL9 cells are lymphoblasts.

[2] = test system: circulating peripheral blood monocytes, lymphocytes, neutrophils and platelets; assay: Cytotoxicity of CdA in vivo: blood cell counts in cutaneous T-cell lymphoma patients; set-up: species or system human
Protocol: FIG. 1 is a graph showing the results of a study of the cytotoxicity of 2-chlorodeoxyadenosine (CdA) toward three cell types in the peripheral blood of eight cutaneous T-cell lymphoma patients. A continuous intravenous infusion of CdA (0.1 mg/ml in isotonic saline) was administered to each patients at a dosage of 0.1 mg/kg per day, with the patients receiving therapy for seven days. Blood samples were removed daily and cell counts performed, with averaged values being shown. Graph symbols are as follows: open squares indicate the monocytes; plus signs indicate neutrophils (X10^-1); and closed diamonds indicate lymphocytes. The cell concentration (ordinate) is plotted for the day of treatment (abscissa) on which it is measured.
The effect of 2-chlorodeoxyadenosine (CdA) administration upon the level of circulating peripheral blood monocytes, lymphocytes, neutrophils and platelets was determined as follows.
Eight cutaneous T-cell lymphoma patients were administered continuous intravenous infusion of a composition containing 2-chlorodeoxyadenosine at a dosage of 0.1 mg/kg of body weight per day in isotonic saline. Blood samples were obtained daily and the number of viable cells present were enumerated daily for seven days after treatment.

[3] = test system: Peripheral blood lymphocytes; assay: Direct comparative cytotoxicity assay (Table II), peripheral blood lymphocytes; type: cell-based, human; settings: Homo sapiens, Lymphocyte, 120 h, read-out: ID50: concentration that produced 50 percent reduction in all numbers after five days
Source text: as §1, §2

CEM, wild type = assay: Direct comparative cytotoxicity assay (Table II), CEM wild type; type: cell-based, human; settings: Homo sapiens, 120 h, read-out: ID50: concentration that produced 50 percent reduction in all numbers after five days
Source text: as §1, §2, §3

IL-6 = assay: Spontaneous IL-6 secretion by cultured monocytes, B9.9 hybridoma bioassay; type: cell-based, human
Protocol: FIG. 6 is a graph that illustrates the effects of relatively low doses of CdA used to contact monocytes for a 72 hour time period. Monocyte release of interleukin-6 (IL-6; closed diamonds) and phagocytosis of antibody-coated red blood cells (RBC; closed squares) were examined, as was the viability of the cultured monocytes (open squares). Effects are expressed as a percentage of control values versus the CdA concentration in nanomoles (nM).
The ability of dialyzed culture supernatants to promote proliferation of B9.9 hybridoma cells is a measure of IL-6 activity (Helle et al. (1988) Eur. J. Immunol., 18:1535-1540). Monocytes spontaneously secrete IL-6 upon adherence to plastic during short-term in vitro culture (Guerne et al. (1989) J. Clin. Invest., 83:585-592). Monocytes cultured in autologous plasma 20 percent for three days secreted approximately 18 U per ml of IL-6, as determined by the bioassay standard curve using rIL-6.
The spontaneous secretion, of IL-6 by cultured monocytes was measured by the hybridoma growth factor bioassay as described by Guerne et al. (1989) J. Clin. Invest., 83:585-592. In this assay, the proliferation of a B9.9 murine hybridoma subclone is dependent on the presence of IL-6. […]

neopterin = assay: Plasma neopterin levels in a rheumatoid arthritis patient treated with CdA; type: in vivo, human
Protocol: Plasma neopterin levels were measured in a patient with rheumatoid arthritis. Neopterin is released from monocytes and macrophages activated in an immune response. Huber et al., J. Exp. Med., 160:310-316 (1984). Likewise, high levels of neopterin are associated with clinical activity in patients with rheumatoid arthritis. Clinical activity was rated by the following criteria: duration of morning stiffness, range of motion, subjective pain score, measurement of grip strength, synovial thickening, and number of inflamed joints. Reibnegger et al., Arthritis Rheum., 29:1063-1070 (1986). The levels of neopterin in patients with rheumatoid arthritis are proportional to both clinical activity and the levels of activated monocytes and macrophages in these patients.
In this study, a patient with rheumatoid arthritis received CdA by a weekly, four hour intravenous infusion at a dosage of 0.125 to 0.15 mg/kg body weight for an approximately three month course of therapy. Plasma neopterin levels were measured throughout this treatment regime.

[4] = test system: freshly isolated human monocytes; assay: Dose- and time-dependence of CdA cytotoxicity toward monocytes; type: cell-based; settings: 50 nM CdA (FIG. 3)
Protocol: FIG. 3 is a graph of the dose- and time-dependence of 2-chlorodeoxyadenosine (CdA) cytotoxicity toward human monocytes in vitro.
Freshly isolated human monocytes were cultured at a concentration of 10^5 cells/well in 96-well flat-bottom tissue culture plates. The cells were incubated in complete medium (Example 2) for about 12 hours following initial plating. The cells were then treated by the addition of various concentrations of CdA to form monocyte-containing compositions specific wells and the plates were incubated, as discussed previously.
The percentage of viable cells that were present in wells containing the treated monocytes was determined daily for six days.

[5] = cited from earlier work

Nc1nc(Cl)nc2c1ncn2[C@H]1C[C@H](O)[C@@H](CO)O1 [CdA, 2-chloro-9,1'-beta-D-2'-deoxyribosyladenine]
IC50 [1]: 60 nM | time for monocyte numbers to return to approximately pre-administration values ([2]; after cessation of the CdA administration): within about two weeks | decrease in number of circulating lymphocytes ([2]; by the end of period of infusion, 0.1 mg/kg per day): 30% | patients whose monocytes disappeared completely from the circulation ([2]; by the seventh treatment day, 0.1 mg/kg per day): four of the eight | mean level of monocyte decrease ([2]; day 7, 0.1 mg/kg per day continuous intravenous infusion, eight patients): 80% | number of circulating neutrophils ([2]; seven days, 0.1 mg/kg per day): no significant decrease | platelet and hemoglobin levels ([2]; seven days, 0.1 mg/kg per day): constant | IC50 [3]: 15 nM | IC50 (CEM, wild type): 21 nM | supernatant IL-6 (IL-6; cytotoxic concentrations of CdA): high levels of IL-6 | spontaneous secretion of IL-6 into the culture supernatant (IL-6; sub-toxic concentrations of CdA, three days): inhibited the spontaneous secretion of IL-6 | plasma neopterin (neopterin; by about day 84 of therapy): about 18 nM | plasma neopterin (neopterin; days 14 through 70 after the first administration): about 30 nM | plasma neopterin (neopterin; initial value, weekly four hour i.v. infusion 0.125 to 0.15 mg/kg): about 60 nM | plasma neopterin (neopterin; within the first seven days of therapy): about 25 nM | cell viability [4]: significant decrease in cell viability within two days | plasma level at which dose-limiting bone marrow suppression usually occurred ([5]; humans, infusion): greater than 20 nM | concentration ([5]; infusion of 0.1-0.5 mg/kg/day, humans, read-out: plasma concentrations of the drug): 10 to 50 nM | tolerability ([5]; infusion, no nausea, vomiting or fever): well tolerated
